Laboratory results reported in article PMC11345841, “Exploring 2-Sulfonylpyrimidine Warheads as Acrylamide Surrogates for Targeted Covalent Inhibition: A BTK Story” (Journal of Medicinal Chemistry, 2024).

Assays:
[1] = biological target: T1, wild-type BTK (Homo sapiens, UniProt Q06187); assay: BTK in vitro activity assay (ADP-Glo, poly-Glu:Tyr phosphorylation, TCEP); conditions: for remaining activity at 0.1 µM: read-out: Remaining BTK activity (%); for inhibition at 0.1 µM: read-out: inhibition of BTK activity
[2] = biological target: T1, wild-type BTK; assay: BTK in vitro activity assay in the presence of DTT vs TCEP (Figure S6); format: biochemical; conditions: 100 nM compound; 2 mM DTT instead of TCEP

T1 sequence (Q06187 whole entry): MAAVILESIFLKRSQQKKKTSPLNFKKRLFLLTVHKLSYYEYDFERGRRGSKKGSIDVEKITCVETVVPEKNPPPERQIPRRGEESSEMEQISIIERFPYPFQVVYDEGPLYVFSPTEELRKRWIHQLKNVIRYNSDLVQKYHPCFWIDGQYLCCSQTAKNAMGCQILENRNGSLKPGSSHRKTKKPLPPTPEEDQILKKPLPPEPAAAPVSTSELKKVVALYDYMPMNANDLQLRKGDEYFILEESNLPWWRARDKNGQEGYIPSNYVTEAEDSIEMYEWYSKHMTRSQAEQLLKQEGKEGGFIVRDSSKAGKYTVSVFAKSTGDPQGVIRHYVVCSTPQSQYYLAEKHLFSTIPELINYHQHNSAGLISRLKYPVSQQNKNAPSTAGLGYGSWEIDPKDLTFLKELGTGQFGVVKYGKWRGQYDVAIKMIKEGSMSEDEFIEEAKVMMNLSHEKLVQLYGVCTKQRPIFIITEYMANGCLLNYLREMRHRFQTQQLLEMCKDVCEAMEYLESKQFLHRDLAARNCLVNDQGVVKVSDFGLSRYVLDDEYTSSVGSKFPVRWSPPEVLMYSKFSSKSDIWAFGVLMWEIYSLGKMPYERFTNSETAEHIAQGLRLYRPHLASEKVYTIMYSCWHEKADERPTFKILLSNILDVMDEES

| SMILES | remaining activity at 0.1 µM [1] [%] | inhibition at 0.1 µM [1] [%] | BTK inhibition in the presence of DTT [2] |
| --- | --- | --- | --- |
| CS(=O)(=O)c1nccc(C(=O)N2CCCC(n3nc(-c4ccc(Oc5ccccc5)cc4)c4c(N)ncnc43)C2)n1 (stereo in doubt) [Compound 5a, (R)-(3-(4-Amino-3-(4-phenoxyphenyl)-1H-pyrazolo[3,4-d]pyrimidin-1-yl)piperidin-1-yl)(2-(methylsulfonyl)pyrimidin-4-yl)methanone] | 17 ± 1 | 80 to 90 | – |
| CS(=O)(=O)c1ncc(Cl)c(C(=O)N2CCCC(n3nc(-c4ccc(Oc5ccccc5)cc4)c4c(N)ncnc43)C2)n1 (stereo in doubt) [Compound 5d, (R)-(3-(4-Amino-3-(4-phenoxyphenyl)-1H-pyrazolo[3,4-d]pyrimidin-1-yl)piperidin-1-yl)(5-chloro-2-(methylsulfonyl)pyrimidin-4-yl)methanone] | 17 ± 2 | 80 to 90 | almost no inhibition |
| CS(=O)(=O)c1ncc(C(=O)N2CCCC(n3nc(-c4ccc(Oc5ccccc5)cc4)c4c(N)ncnc43)C2)cn1 (stereo in doubt) [Compound 5e, (R)-(3-(4-Amino-3-(4-phenoxyphenyl)-1H-pyrazolo[3,4-d]pyrimidin-1-yl)piperidin-1-yl)(2-(methylsulfonyl)pyrimidin-5-yl)methanone] | 9 ± 2 | 80 to 90 | – |
| CCCCS(=O)(=O)c1ncc(C(=O)N2CCCC(n3nc(-c4ccc(Oc5ccccc5)cc4)c4c(N)ncnc43)C2)cn1 (stereo in doubt) [Compound 5f, (R)-(3-(4-Amino-3-(4-phenoxyphenyl)-1H-pyrazolo[3,4-d]pyrimidin-1-yl)piperidin-1-yl)(2-(butylsulfonyl)pyrimidin-5-yl)methanone] | 38 ± 2 | 40 to 60 | – |
| Nc1ncnc2c1c(-c1ccc(Oc3ccccc3)cc1)nn2C1CCCN(C(=O)c2cnc(S(=O)(=O)c3ccccc3)nc2)C1 (stereo in doubt) [Compound 5g, (R)-(3-(4-Amino-3-(4-phenoxyphenyl)-1H-pyrazolo[3,4-d]pyrimidin-1-yl)piperidin-1-yl)(2-(phenylsulfonyl)pyrimidin-5-yl)methanone] | 35 ± 1 | 40 to 60 | – |
| CSc1nccc(C(=O)N2CCC[C@@H](n3nc(-c4ccc(Oc5ccccc5)cc4)c4c(N)ncnc43)C2)n1 [Compound 4a, (R)-(3-(4-Amino-3-(4-phenoxyphenyl)-1H-pyrazolo[3,4-d]pyrimidin-1-yl)piperidin-1-yl)(2-(methylthio)pyrimidin-4-yl)methanone] | 84 ± 8 | – | – |
| CCCCSc1nccc(C(=O)N2CCC[C@@H](n3nc(-c4ccc(Oc5ccccc5)cc4)c4c(N)ncnc43)C2)n1 [Compound 4b, (R)-(3-(4-Amino-3-(4-phenoxyphenyl)-1H-pyrazolo[3,4-d]pyrimidin-1-yl)piperidin-1-yl)(2-(butylthio)pyrimidin-4-yl)methanone] | 82 ± 1 | – | – |
| Nc1ncnc2c1c(-c1ccc(Oc3ccccc3)cc1)nn2[C@@H]1CCCN(C(=O)c2ccnc(Sc3ccccc3)n2)C1 [Compound 4c, (R)-(3-(4-Amino-3-(4-phenoxyphenyl)-1H-pyrazolo[3,4-d]pyrimidin-1-yl)piperidin-1-yl)(2-(phenylthio)pyrimidin-4-yl)methanone] | 98 ± 5 | – | – |
| CSc1ncc(Cl)c(C(=O)N2CCC[C@@H](n3nc(-c4ccc(Oc5ccccc5)cc4)c4c(N)ncnc43)C2)n1 [Compound 4d, (R)-(3-(4-Amino-3-(4-phenoxyphenyl)-1H-pyrazolo[3,4-d]pyrimidin-1-yl)piperidin-1-yl)(5-chloro-2-(methylthio)pyrimidin-4-yl)methanone] | 100 ± 6 | – | – |
| CSc1ncc(C(=O)N2CCC[C@@H](n3nc(-c4ccc(Oc5ccccc5)cc4)c4c(N)ncnc43)C2)cn1 [Compound 4e, (R)-(3-(4-Amino-3-(4-phenoxyphenyl)-1H-pyrazolo[3,4-d]pyrimidin-1-yl)piperidin-1-yl)(2-(methylthio)pyrimidin-5-yl)methanone] | 83 ± 9 | – | – |
| CCCCSc1ncc(C(=O)N2CCC[C@@H](n3nc(-c4ccc(Oc5ccccc5)cc4)c4c(N)ncnc43)C2)cn1 [Compound 4f, (R)-(3-(4-Amino-3-(4-phenoxyphenyl)-1H-pyrazolo[3,4-d]pyrimidin-1-yl)piperidin-1-yl)(2-(butylthio)pyrimidin-5-yl)methanone] | 84 ± 5 | – | – |
| Nc1ncnc2c1c(-c1ccc(Oc3ccccc3)cc1)nn2[C@@H]1CCCN(C(=O)c2cnc(Sc3ccccc3)nc2)C1 [Compound 4g, (R)-(3-(4-Amino-3-(4-phenoxyphenyl)-1H-pyrazolo[3,4-d]pyrimidin-1-yl)piperidin-1-yl)(2-(phenylthio)pyrimidin-5-yl)methanone] | 100 ± 6 | – | – |
| CCCCS(=O)(=O)c1nccc(C(=O)N2CCC[C@H](n3nc(-c4ccc(Oc5ccccc5)cc4)c4c(N)ncnc43)C2)n1 [Compound 5b, (3-(4-Amino-3-(4-phenoxyphenyl)-1H-pyrazolo[3,4-d]pyrimidin-1-yl)piperidin-1-yl)(2-(butylsulfonyl)pyrimidin-4-yl)methanone] | 58 ± 3 | 40 to 60 | – |
| Nc1ncnc2c1c(-c1ccc(Oc3ccccc3)cc1)nn2[C@H]1CCCN(C(=O)c2ccnc(S(=O)(=O)c3ccccc3)n2)C1 [Compound 5c, (3-(4-Amino-3-(4-phenoxyphenyl)-1H-pyrazolo[3,4-d]pyrimidin-1-yl)piperidin-1-yl)(2-(phenylsulfonyl)pyrimidin-4-yl)methanone] | 40 ± 1 | 40 to 60 | – |
| Nc1ncnc2c1c(-c1ccc(Oc3ccccc3)cc1)nn2[C@@H]1CCCN(C(=O)c2ccccc2)C1 [Compound 10, (R)-(3-(4-Amino-3-(4-phenoxyphenyl)-1H-pyrazolo[3,4-d]pyrimidin-1-yl)piperidin-1-yl)(phenyl)methanone] | 100 ± 0.2 | – | – |

Now from value to molecule:

| remaining activity at 0.1 µM [1] [%] | inhibition at 0.1 µM [1] [%] | BTK inhibition in the presence of DTT [2] | SMILES |
| --- | --- | --- | --- |
| 40 ± 0.3 | – | – | CSc1ncc(C)c(N2CCCC(n3nc(-c4ccc(Oc5ccccc5)cc4)c4c(N)ncnc43)C2)n1 (stereo not drawn) [Compound 7a, 1-(1-(5-Methyl-2-(methylthio)pyrimidin-4-yl)piperidin-3-yl)-3-(4-phenoxyphenyl)-1H-pyrazolo[3,4-d]pyrimidin-4-amine] |
| 76 ± 2 | – | – | COC(=O)c1cnc(SC)nc1N1CCC[C@@H](n2nc(-c3ccc(Oc4ccccc4)cc3)c3c(N)ncnc32)C1 [Compound 7b, Methyl (R)-4-(3-(4-Amino-3-(4-phenoxyphenyl)-1H-pyrazolo[3,4-d]pyrimidin-1-yl)piperidin-1-yl)-2-(methylthio)pyrimidine-5-carboxylate] |
| 105 ± 4 | – | – | CCOC(=O)c1cnc(SC)nc1N1CCC[C@@H](n2nc(-c3ccc(Oc4ccccc4)cc3)c3c(N)ncnc32)C1 [Compound 7c, Ethyl (R)-4-(3-(4-Amino-3-(4-phenoxyphenyl)-1H-pyrazolo[3,4-d]pyrimidin-1-yl)piperidin-1-yl)-2-(methylthio)pyrimidine-5-carboxylate] |
| 78 ± 2 | – | – | CNC(=O)c1cnc(SC)nc1N1CCCC(n2nc(-c3ccc(Oc4ccccc4)cc3)c3c(N)ncnc32)C1 (stereo not drawn) [Compound 7d, 4-(3-(4-Amino-3-(4-phenoxyphenyl)-1H-pyrazolo[3,4-d]pyrimidin-1-yl)piperidin-1-yl)-N-methyl-2-(methylthio)pyrimidine-5-carboxamide] |
| 69 ± 2 | – | – | CSc1ncc(N2CCCC(n3nc(-c4ccc(Oc5ccccc5)cc4)c4c(N)ncnc43)C2)c(C)n1 (stereo not drawn) [Compound 7e, 1-(1-(4-Methyl-2-(methylthio)pyrimidin-5-yl)piperidin-3-yl)-3-(4-phenoxyphenyl)-1H-pyrazolo[3,4-d]pyrimidin-4-amine] |
| 48 ± 0.3 | – | – | CS(=O)(=O)c1nccc(N2CCC[C@@H](n3nc(-c4ccc(Oc5ccccc5)cc4)c4c(N)ncnc43)C2)n1 [Compound 8e, (R)-1-(1-(2-(Methylsulfonyl)pyrimidin-4-yl)piperidin-3-yl)-3-(4-phenoxyphenyl)-1H-pyrazolo[3,4-d]pyrimidin-4-amine] |
| 80 ± 3 | – | – | Cc1nc(S(C)(=O)=O)ncc1N1CCCC(n2nc(-c3ccc(Oc4ccccc4)cc3)c3c(N)ncnc32)C1 (stereo not drawn) [Compound 9a, 1-(1-(4-Methyl-2-(methylsulfonyl)pyrimidin-5-yl)piperidin-3-yl)-3-(4-phenoxyphenyl)-1H-pyrazolo[3,4-d]pyrimidin-4-amine] |
| 103 ± 5 | – | – | CS(=O)(=O)c1ncc(N2CCC[C@@H](n3nc(-c4ccc(Oc5ccccc5)cc4)c4c(N)ncnc43)C2)cn1 [Compound 9b, (R)-1-(1-(2-(Methylsulfonyl)pyrimidin-5-yl)piperidin-3-yl)-3-(4-phenoxyphenyl)-1H-pyrazolo[3,4-d]pyrimidin-4-amine] |
| 53 ± 2 | – | – | Nc1ncnc2c1c(-c1ccc(Oc3ccccc3)cc1)nn2[C@@H]1CCCN(C(=O)c2ccncn2)C1 [Compound 12a, (R)-(3-(4-Amino-3-(4-phenoxyphenyl)-1H-pyrazolo[3,4-d]pyrimidin-1-yl)piperidin-1-yl)(pyrimidin-4-yl)methanone] |
| 83 ± 7 | – | – | Nc1ncnc2c1c(-c1ccc(Oc3ccccc3)cc1)nn2[C@@H]1CCCN(C(=O)c2cncnc2)C1 [Compound 12b, (R)-(3-(4-Amino-3-(4-phenoxyphenyl)-1H-pyrazolo[3,4-d]pyrimidin-1-yl)piperidin-1-yl)(pyrimidin-5-yl)methanone] |
